{
  "source": "patent US10883143B2",
  "about": "“Compositions and methods for enhancing odorant receptor activity” (DUKE UNIVERSITY, priority 2009, dated 2021)",
  "key": {"[1]": {"test_system": "olfactory sensory neurons (OSNs)", "assay": "Calcium imaging of acutely dissociated OSNs stimulated with a mix of 10 odorants", "type": "cell-based, mouse", "settings": "paired T-test"}, "[2]": {"molecular_target": "T1, OR-S6 coexpressed with M3 (Mus musculus, UniProt Q9ERZ3)", "T1 construct": "The open reading frames were amplified using Phusion polymerase; expressed in transfected cells; host or cells: HEK293T", "T1 sequence (Q9ERZ3 whole entry)": "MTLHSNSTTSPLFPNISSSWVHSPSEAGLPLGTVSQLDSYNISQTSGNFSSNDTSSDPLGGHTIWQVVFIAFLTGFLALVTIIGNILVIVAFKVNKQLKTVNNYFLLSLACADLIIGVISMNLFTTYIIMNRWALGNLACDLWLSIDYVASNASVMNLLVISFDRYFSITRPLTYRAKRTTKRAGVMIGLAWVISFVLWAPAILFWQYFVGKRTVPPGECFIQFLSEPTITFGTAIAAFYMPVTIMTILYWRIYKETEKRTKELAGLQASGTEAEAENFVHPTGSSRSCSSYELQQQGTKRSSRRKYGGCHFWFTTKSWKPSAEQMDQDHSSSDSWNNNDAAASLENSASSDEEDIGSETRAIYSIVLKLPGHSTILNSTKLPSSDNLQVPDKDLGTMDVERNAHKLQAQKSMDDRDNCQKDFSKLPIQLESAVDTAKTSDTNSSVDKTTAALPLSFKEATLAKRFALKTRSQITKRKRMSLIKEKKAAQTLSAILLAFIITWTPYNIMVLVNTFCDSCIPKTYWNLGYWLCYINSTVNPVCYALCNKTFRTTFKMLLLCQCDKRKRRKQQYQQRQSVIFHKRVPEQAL", "assay": "CRE-luciferase reporter assay of OR activation in HEK293T cells", "type": "cell-based", "method": "(§1) Given that GPCRs that form heteromeric interactions often show functional co-modulation, experiments were conducted to determine if altering M3 activity directly affects the odor-mediated activation of ORs. […] HEK293T cells Hana3A cells were maintained in minimal essential medium (MEM) containing 10% fetal bovine serum (M10) and penicillin-streptomycin and amphotericin solution. Lipofectamine 2000 (Invitrogen) was used for transfection following manufacturer's protocols. […] Briefly, cAMP response element (CRE)-luciferase (Stratagene) was used to measure OR activation. […] Cells were plated on poly-D-lysine-coated 96-well plates (NUNC) 2 days prior to assay. Cells were transfected with ORs in either Hana3A or HEK293T cell lines along with various combinations of RTP1S, Ric-8b, M3, CRE-luciferase, and pRL-SV40. 18-24 hours after transfection, cells were rinsed with 50 μl of CD293 (Invitrogen) and stimulated with 25 μl of odorant solution dissolved in CD293. Cells were incubated for 4 hours at 37° C. and 5% CO2 before luciferase assays. Protocols for measuring luciferase and Renilla luciferase activities were as described by the manufacturer (Promega). Normalized luciferase activity was calculated with the formula (LN−Lmin)/(Lmax−Lmin), where LN is the luminescence of firefly luciferase in response to the odorant, Lmin is the minimum luciferase value on a plate or set of plates, and Lmax is the maximum luciferase value on a plate or set of plates. The data was analyzed with Microsoft Excel and GraphPad Prism 5. Odorants and muscarinic agonists and antagonists were from Sigma except for darifenacin, which was purchased from Santa Cruz."}, "[3]": {"test_system": "OR-S6 coexpressed with M3", "assay": "CRE-luciferase reporter assay of OR activation in HEK293T cells", "type": "cell-based, mouse", "settings": "HEK293T coexpressing OR-S6, RTP1S and M3 vs. without M3", "method": "as §1"}, "[4]": {"test_system": "OR-S6, RTP1S and M3 coexpressed", "assay": "Alphascreen cAMP assay in HEK293T cells", "type": "cell-based, mouse", "method": "When OR, RTP1S, and M3 were coexpressed, the background level was slightly higher than other conditions.\nAlphascreen cAMP assay (Perkin Elmer) was used to measure changes of cAMP. Cells were plated on 96-cell plate (poly D lysine coated, NUNC). 24 hours after transfection, cells were washed in Hanks containing 5 mM HEPES, 0.1% BSA and 500 uM IBMX for 30 minutes. The cells were then stimulated with Hanks containing 5 mM HEPES, 0.1% BSA and 500 uM IBMX and corresponding chemicals. The stimulated cells were incubated for 10 min at room temperature before lysis. The manufacture's protocol was used to measure cAMP."}, "M3": {"molecular_target": "T2, M3 (Mus musculus, UniProt Q9ERZ3)", "T2 construct": "The open reading frames were amplified using Phusion polymerase; expressed in transfected cells; host or cells: HEK293T", "T2 sequence (Q9ERZ3 whole entry)": "as above", "assay": "Calcium imaging with HEK293T cells expressing M3", "type": "cell-based", "settings": "carbachol 10^−7M", "excerpt": "(§2) Since M3 potentiates OR signaling, the possibility that OR activation may also enhance M3 signaling was considered."}, "OR-S6": {"test_system": "OR-S6", "assay": "Calcium imaging with HEK293T cells expressing OR-S6 without M3", "type": "cell-based, mouse", "method": "as §2\nCalcium imaging with HEK293T cells was performed as described (see, e.g., Y. Ishimaru et al., Proc Natl Acad Sci USA 103, 12569 (Aug. 15, 2006); herein incorporated by reference in its entirety)."}, "[5]": {"test_system": "OR-S6 coexpressed with M3", "assay": "Calcium imaging with HEK293T cells coexpressing OR-S6 and M3", "type": "cell-based, mouse", "settings": "for calcium response to odor alone: OR-S6 and its cofactors (mRTP) coexpressed with M3, 10^−4M nonanedioic acid", "excerpt": "as §2"}},
  "note": "“Also recorded” adds a separate entry of the source.",
  "data": [
    {"smiles": "O[Si](CCCN1CCCCC1)(c1ccc(F)cc1)C1CCCCC1", "note": "(stereo not drawn) [pfHHSiD]", "values": [
      {"measurement": "odor-mediated calcium responses of OSNs (Fluo-4/Fura-red ratio, Anet)", "setting": "[1]; 10^−6M antagonist with mix of 10 odorants each at 10^−5M", "result": "Equivalent results; also recorded: attenuated odor-mediated responses of OSNs"}
    ]},
    {"smiles": "CN1[C@@H]2CC[C@H]1C[C@@H](OC(=O)C(CO)c1ccccc1)C2", "note": "(stereo partly drawn) [atropine]", "values": [
      {"measurement": "OR-S6 activation by nonanedioic acid on co-stimulation with muscarinic ligand", "setting": "[2]", "result": "hindered the potentiation effect of M3"}
    ]},
    {"smiles": "C[C@H](CCC(=O)O)C[C@H](C)C[C@H](C)C(=O)/C=C(\\O)[C@H](C)C[C@H](C)C/C=C/[C@@H](C)[C@@H](O)[C@@H](C)[C@@H](O)C[C@@H]1CC[C@@](C)([C@H]2CC[C@@](C)([C@@H](C)O)O2)O1", "note": "[ionomycin]", "values": [
      {"measurement": "CRE-luciferase reporter response without OR ligands", "setting": "[3]", "result": "reporter gene responses were not seen"},
      {"measurement": "CRE-luciferase reporter response without OR ligands", "setting": "[3]; listed as Ionomycin", "result": "had no effect on OR activation"}
    ]},
    {"smiles": "C[N+](C)(C)CCOC(N)=O", "note": "[carbachol]", "values": [
      {"measurement": "rise in cAMP following OR stimulation, costimulation with carbachol", "setting": "[4]; carbachol 10^−7M, HEK293T transfected with OR-S6, RTP1S and M3", "result": "even more dramatic; also recorded: further stimulates production of cAMP"}
    ]},
    {"smiles": "O=C(O)CCCCCCCC(=O)O", "note": "[nonanedioic acid]", "values": [
      {"measurement": "cellular cAMP levels following stimulation with OR-S6 ligand", "setting": "[4]; cells coexpressing OR-S6, RTP1S and M3 vs. without M3", "result": "dramatic increase in cellular cAMP levels"},
      {"measurement": "calcium response", "setting": "M3", "result": "No response was observed"},
      {"measurement": "calcium response", "setting": "OR-S6; HEK293T cells expressing OR-S6 alone", "result": "No calcium response was observed"},
      {"measurement": "calcium response", "setting": "OR-S6; cells coexpressing OR and Gα15olf (positive control)", "result": "generate a calcium response"},
      {"measurement": "calcium response", "setting": "OR-S6; cells coexpressing OR and Gα15olf (positive control), listed as nonandioic acid", "result": "increase cellular calcium"},
      {"measurement": "calcium response to odor alone", "setting": "[5]", "result": "strong calcium response"},
      {"measurement": "calcium response to odor alone", "setting": "[5]; listed as nonandioic acid", "result": "calcium level increases"},
      {"measurement": "calcium response", "setting": "[5]; cells expressing both S6 and M3 in the absence of RTP", "result": "does not elicit a calcium response"}
    ]},
    {"smiles": "NC(=O)C(c1ccccc1)(c1ccccc1)[C@@H]1CCN(CCc2ccc3c(c2)CCO3)C1", "note": "[darifenacin]", "values": [
      {"measurement": "odor-mediated calcium responses of OSNs (Fluo-4/Fura-red ratio, Anet)", "setting": "[1]; 10^−7M antagonist with mix of 10 odorants each at 10^−5M", "result": "significantly attenuated"},
      {"measurement": "odor-mediated calcium responses of OSNs (Fluo-4/Fura-red ratio, Anet)", "setting": "[1]; 10^−7M antagonist with mix of 10 odorants each at 10^−5M, listed as darifenecin", "result": "attenuated odor-mediated responses of OSNs"}
    ]}
  ]
}
